Assay results from patent US9360486B2, “Allergen fragments” (Biomay AG, priority 2007, dated 2016).

Tested on: Amb a 1-specific T cell lines (TCL)
Assay: T cell epitope mapping of Amb a 1.3: proliferation (3H-thymidine uptake) of TCL stimulated with synthetic peptides
Type: cell-based, human
Conditions: for No. positive patients SI > 3 / No. positive patients SI > 5 / % (positive patients SI > 3) / % (positive patients SI > 5): TCL from 48 ragweed pollen-allergic patients, peptide 5 μg/ml; for No. positive patients SI > 3 / No. positive patients SI > 5: 3H-thymidine uptake after 48 hrs; for No. positive patients SI > 3 / % (positive patients SI > 3): stimulation index > 3; for No. positive patients SI > 5 / % (positive patients SI > 5): stimulation index > 5; for T cell activating region recognized by % of patients: classes of prevalence referring to SI>5, 48 TCL
Text: The T cell response to Amb a 1 was characterized in detail using the established in vitro culture system (Jahn-Schmid et al., J. Immunol. 169: 6005-11, 2002; Jahn-Schmid et al., J. Allergy Clin. Immunol., 115: 399-404, 2005). In total, 85 clinically well-defined patients (75 from Vienna/10 from Milano) with typical case history, positive skin prick test and CAP/RAST tests for ragweed extract were included.
Peripheral blood mononuclear cells (PBMC) were isolated from heparinized blood of allergic patients by Ficoll density gradient centrifugation. To generate allergen-specific T cell lines (TCL) and T cell clones (TCC), 1.5×10^6 PBMC were stimulated with optimal doses of ragweed or mugwort extract (4 μg/ml) or rAmb a 1.3 (10 μg/ml) in 24-well flat-bottomed culture plates (Costar, USA). After 5 days human rIL-2 (10 U/ml, Boehringer, Mannheim, Germany) were added and cultures were continued for additional 7 days. Then, T cell blasts were isolated by density centrifugation. The majority of T cell blasts was further expanded with IL-2 and irradiated PBMC. A small number of T cell blasts were used to establish monoclonal T cell cultures by limiting dilution: 0.3 T cells/well were seeded into 96 well round bottom plates (Nunclone) in the presence of 2×10^5 irradiated (60 Gy) PBMC, 0.25% v/v PHA (Gibco, USA) and rIL-2 (4 U/well) in the medium mentioned above. After 14-21 days, growing microcultures were expanded at weekly intervals with irradiated PBMC and rIL-2. The specificity of TCC was assessed in proliferation assays using irradiated allogeneic or HLA-matched PBMC or irradiated EBV-transformed allogeneic B-cells and 5 μg/ml Amb a 1.3. After 48 hours, cellular uptake of tritiated (^3H)-thymidine was performed to measure proliferation in counts per minute (cpm). When the stimulation index (SI; ratio between cpm obtained in cultures containing TCC plus autologous APC plus antigen, and cpm obtained in cultures containing TCC and APC alone) was >10, responses were considered as positive. Allergen-specific TCC were expanded by alternating turns of stimulation with autologous irradiated APC and allergen or with allogeneic feeder cells and rIL-2.
Amb a 1-specific TCL and TCC were used to identify T cell epitopes of Amb a 1.3. T cell cultures were stimulated with a panel of 121 synthetic 12-mer peptides and one 13-mer representing the C-terminal peptide of Amb a 1.3 (Pepset, Biotrend, Germany). Peptides had been synthesized according to the Amb a 1.3 amino acid sequence and overlapped for 9 amino acid residues with the neighbouring peptides (Table 1). Peptides were used at a concentration of 5 μg/ml for stimulation and proliferation of T cell cultures was determined after 48 hrs by ^3H-thymidine-uptake. Because of the frequently observed high background caused by auto-reactivity in TCL, the mean of the cpm observed with the ten least stimulating peptides (none of the peptides was toxic) was used as negative control in calculations of SI. Throughout this manuscript, a peptide comprised one T cell epitope when the stimulation index was at least 3.0.
T cell epitope mapping of Amb a 1.3 was performed evaluating 48 TCL from different patients ([…]), which had been initiated with ragweed extract (containing the natural allergen) or rAmb a 1.3 (Table 2). TCL induced with either ragweed extract or rAmb a 1.3 from the same individual recognized similar T cell epitopes (Table 2; FIG. 7). […] Therefore, their data were combined for further analysis (Table 3). Typical for many inhalant allergens, multiple T cell activating regions were detected in Amb a 1.3. The number of peptides recognized by T cells from a single individual ranged from 2 to maximum 60 peptides with a mean of 17.8 peptides (median=16/for SI>3; resp. 0-36/11.9/12 for SI>5) (see Table 3). In total, 26 relevant (i.e. recognized by ≧10% of patients studied) T cell activating regions comprising 12-18 aa were identified. […]

Row | Sequence | No. positive patients SI > 3 | No. positive patients SI > 5 | % (positive patients SI > 3) [%] | % (positive patients SI > 5) [%] | reactivity with T cells isolated from allergic individuals | T cell activating region recognized by % of patients | T cell reactivity with samples from individuals suffering from ragweed pollen allergy
1 | AAAQNRPLWIIF (Amb a 1 fragment) [Peptide 29] | 4 | 3 | 8.3 | 6.3 |  |  | 
2 | AEPGEAAIKLTS (Amb a 1 fragment) [Peptide 117] | 4 | 3 | 8.3 | 6.3 |  |  | 
3 | AIKLTSSAGVLS (Amb a 1 fragment) [Peptide 119] | 16 | 10 | 33.3 | 20.8 | reactivity with T cells |  | 
4 | AIKLTSSAGVLSCRP (Amb a 1 fragment) [Peptide 119-120] |  |  |  |  | reactivity with T cells |  | 
5 | AKGTYGGKWGDV (Amb a 1 fragment) [Peptide 18] | 1 | 0 | 2.1 | 0.0 |  |  | 
6 | ALADCAQGFAKG (Amb a 1 fragment) [Peptide 15] | 4 | 2 | 8.3 | 4.2 |  |  | 
7 | AWNWRSDKDLLE (Amb a 1 fragment) [Peptide 105] | 4 | 3 | 8.3 | 6.3 |  |  | 
8 | CKFTQQSKAILL (Amb a 1 fragment) [Peptide 71] | 4 | 2 | 8.3 | 4.2 |  |  | 
9 | CSLSKSFDGLVD (Amb a 1 fragment) [Peptide 63] | 2 | 2 | 4.2 | 4.2 |  |  | 
10 | DCAQGFAKGTYG (Amb a 1 fragment) [Peptide 16] | 2 | 0 | 4.2 | 0.0 |  |  | 
11 | DGPPILRQASDG (Amb a 1 fragment) [Peptide 54] | 4 | 2 | 8.3 | 4.2 |  |  | 
12 | DKCWRGKADWEN (Amb a 1 fragment) [Peptide 10] | 2 | 2 | 4.2 | 4.2 |  |  | 
13 | DKDLLENGAIFV (Amb a 1 fragment) [Peptide 107] | 30 | 27 | 62.5 | 56.3 | reactivity with T cells |  | 
14 | DKDLLENGAIFVTSG (Amb a 1 fragment) [Peptide 107-108] |  |  |  |  | reactivity with T cells | recognized by 56.3% | 
15 | DKDLLENGAIFVTSGSDPVLTPVQ (Amb a 1 fragment) [Peptide 107-111] |  |  |  |  | reactivity with T cells |  | 
16 | DTHVQDKGMLAT (Amb a 1 fragment) [Peptide 76] | 4 | 1 | 8.3 | 2.1 |  |  | 

Row | Sequence | No. positive patients SI > 3 | No. positive patients SI > 5 | % (positive patients SI > 3) [%] | % (positive patients SI > 5) [%] | reactivity with T cells isolated from allergic individuals | T cell activating region recognized by % of patients | T cell reactivity with samples from individuals suffering from ragweed pollen allergy
17 | DTINVAGSSQIW (Amb a 1 fragment) [Peptide 58] | 3 | 1 | 6.3 | 2.1 |  |  | 
18 | DVANPKEGTLRF (Amb a 1 fragment) [Peptide 25] | 2 | 0 | 4.2 | 0.0 |  |  | 
19 | EAYNIIDKCWRG (Amb a 1 fragment) [Peptide 8] | 3 | 1 | 6.3 | 2.1 |  |  | 
20 | EGTLRFAAAQNR (Amb a 1 fragment) [Peptide 27] | 5 | 5 | 10.4 | 10.4 | reactivity with T cells |  | 
21 | EGTLRFAAAQNRPLW (Amb a 1 fragment) [Peptide 27-28] |  |  |  |  | reactivity with T cells | recognized by 22.9% | 
22 | EIINGGLTLMNV (Amb a 1 fragment) [Peptide 42] | 11 | 5 | 22.9 | 10.4 | reactivity with T cells | recognized by 10.4% | 
23 | EILPSVNETRSL (Amb a 1 fragment) [Peptide 3] | 1 | 0 | 2.1 | 0.0 |  |  | 
24 | ESMAWNWRSDKD (Amb a 1 fragment) [Peptide 104] | 2 | 1 | 4.2 | 2.1 |  |  | 
25 | FDGLVDVTLGST (Amb a 1 fragment) [Peptide 65] | 2 | 1 | 4.2 | 2.1 |  |  | 
26 | FGFFQVVNNNYD (Amb a 1 fragment) [Peptide 86] | 12 | 10 | 25.0 | 20.8 | reactivity with T cells | recognized by 20.6% | high T cell reactivity
27 | FLAPDDQIKKNV (Amb a 1 fragment) [Peptide 97] | 6 | 4 | 12.5 | 8.3 | reactivity with T cells |  | 
28 | FQVVNNNYDRWG (Amb a 1 fragment) [Peptide 87] | 5 | 2 | 10.4 | 4.2 | reactivity with T cells |  | 
29 | GAAESMAWNWRS (Amb a 1 fragment) [Peptide 103] | 2 | 1 | 4.2 | 2.1 |  |  | 
30 | GADDTHVQDKGM (Amb a 1 fragment) [Peptide 75] | 1 | 1 | 2.1 | 2.1 |  |  | 
31 | GDVYTVTSNLDD (Amb a 1 fragment) [Peptide 21] | 2 | 1 | 4.2 | 2.1 |  |  | 
32 | GEAAIKLTSSAG (Amb a 1 fragment) [Peptide 118] | 10 | 8 | 20.8 | 16.7 | reactivity with T cells |  | 
